Assay results reported in US9663528B2, “Substituted 1,2,3,4,6,8,12,12a-octahydro-1,4-methanodipyrido[1,2-a:1',2'-d]pyrazines and methods for treating viral infections” (priority 2012, dated 2017).
Like-named read-outs stand apart in the source and are kept apart here.

What was measured:
MT4 cells = assay: in vitro
HIV-IIIb = assay: Antiviral assay in MT4 cells; assay type: cell-based; settings: MT4 cells infected with HIV-IIIb, 5 days incubation; read-out: EC50 nM in MT-4
Method: For the antiviral assay utilizing MT4 cells, 0.4 μL of […] test concentration of 3-fold serially diluted compound in DMSO was added to 40 μL of cell growth medium (RPMI 1640, 10% FBS, 1% penicilline/Streptomycine, 1% L-Glutamine, 1% HEPES) in each well of 384-well assay plates (10 concentrations) in quidruplicate.
1 mL aliquots of 2×10^6 MT4 cells are pre-infected for 1 and 3 hours respectively at 37° C. with 25 μL (MT4) or of either cell growth medium (mock-infected) or a fresh 1:250 dilution of an HIV-IIIb concentrated ABI stock (0.004 m.o.i. for MT4 cells). Infected and uninfected cells are diluted in cell growth medium and 35 μL of 2000 (for MT4) cells is added to each well of the assay plates.
Assay plates were then incubated in a 37° C. incubator. After 5 days of incubation, 25 μL of 2× concentrated CellTiter-Glo™ Reagent (catalog #G7573, Promega Biosciences, Inc., Madison, Wis.) was added to each well of the assay plate. Cell lysis was carried out by incubating at room temperature for 2-3 minutes, and then chemiluminescence was read using the Envision reader (PerkinElmer).

PXR = PXR (Homo sapiens (Human), UniProt O75469); assay: Human PXR activation assay (luciferase reporter gene assay, DPX2 cells); assay type: cell-based; settings: 15 μM; relative to maximum fold induction by 10 or 20 μM rifampicin; DPX2 cells, 24 hours
Method: A stably transformed tumor cell line (DPX2) was plated on 96-well microtiter plates. DPX2 cells harbor the human PXR gene (NR112) and a luciferase reporter gene linked to two promoters identified in the human CYP3A4 gene, namely XREM and PXRE. […] The number of viable cells was determined and the reporter gene activity was assessed. Positive control: […]

PXR, sequence (O75469 whole entry): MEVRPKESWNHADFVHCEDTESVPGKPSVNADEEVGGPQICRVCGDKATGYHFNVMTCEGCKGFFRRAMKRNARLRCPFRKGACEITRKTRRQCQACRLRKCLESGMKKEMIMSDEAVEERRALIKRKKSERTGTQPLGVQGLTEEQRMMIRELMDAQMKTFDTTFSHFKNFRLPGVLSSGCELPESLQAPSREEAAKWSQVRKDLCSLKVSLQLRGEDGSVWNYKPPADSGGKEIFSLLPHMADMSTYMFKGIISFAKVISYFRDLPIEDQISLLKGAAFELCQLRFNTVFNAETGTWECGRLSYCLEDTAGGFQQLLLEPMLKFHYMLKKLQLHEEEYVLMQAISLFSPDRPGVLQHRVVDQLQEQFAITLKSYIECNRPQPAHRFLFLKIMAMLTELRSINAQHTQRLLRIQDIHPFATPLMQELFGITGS

Compound: O=C(NC1(c2ccc(F)cc2F)CC1)c1cn2c(c(O)c1=O)C(=O)N1[C@@H]3CC[C@@H](C3)O[C@H]1C2 [Compound 30, (2S,5R,13aS)-N-(1-(2,4-difluorophenyl)cyclopropyl)-8-hydroxy-7,9-dioxo-2,3,4,5,7,9,13,13a-octahydro-2,5-methanopyrido[1′,2′:4,5]pyrazino[2,1-b][1,3]oxazepine-10-carboxamide]
- CC50 (MT4 cells; human, 5 days): 6.83 µM
- EC50 (HIV-IIIb): 4 nM

Compound: O=C(NCc1c(F)cc(F)cc1F)c1cn2c(c(O)c1=O)C(=O)N1[C@H]3CC[C@H](CC3)[C@H]1C2 [Compound 101, (11R,4R,12aS)-7-hydroxy-6,8-dioxo-N-(2,4,6-trifluorobenzyl)-1,2,3,4,6,8,12,12a-octahydro-1,4-ethanodipyrido[1,2-a:1′,2′-d]pyrazine-9-carboxamide]
- CC50 (MT4 cells): 11.6 µM
- EC50 (HIV-IIIb): 2.1 nM

Compound: O=C(NCc1c(F)cc(F)cc1F)c1cn2c(c(O)c1=O)C(=O)N1[C@H]3CC[C@H](CC3)[C@@H]1C2 [Compound 102, (1S,4S,12aR)-7-hydroxy-6,8-dioxo-N-(2,4,6-trifluorobenzyl)-1,2,3,4,6,8,12,12a-octahydro-1,4-ethanodipyrido[1,2-a:1′,2′-d]pyrazine-9-carboxamide]
- % Emax at 15 μM (PXR): 123%
- CC50 (MT4 cells): 12 µM
- EC50 (HIV-IIIb): 2.3 nM
